Source: patent US9249152B2, “Cyano containing azabenzofuran compounds for the treatment of hepatitis C” (BRISTOL-MYERS SQUIBB COMPANY, priority 2014, dated 2016)
Where two headings read alike, the source gives them in different places.

Legend:
HCV replicon 1a = assay: HCV replicon luciferase assay, genotype 1a; type: cell-based; conditions: Hepatitis C virus
[1] = system: genotype 1b (Con-1) HCV replicon; assay: HCV replicon luciferase assay, genotype 1b (Con-1); type: cell-based; conditions: genotype 1b HCV replicon, Huh-7 cells, Renilla luciferase, 3 days
Procedure: The cell lines used to evaluate compounds consist of a human hepatocyte derived cell line (Huh-7) that constitutively expresses a genotype 1b (Con-1) HCV replicon or a genotype 1b (Con-1) HCV replicon with an asparagine replacing the cysteine at amino acid 316, or a genotype 2a (JFH-1) replicon, containing a Renilla luciferase reporter gene. These cells were maintained in Dulbecco's modified Eagle medium (DMEM) containing 10% FBS, 100 U/mL penicillin/streptomycin and 1.0 mg/mL G418.
To evaluate compound efficacy, titrated compounds were transferred to sterile 384-well tissue culture treated plates, and the plates were seeded with HCV replicon cells (50 μL at a density of 2.4×10^3 cells/well) in DMEM containing 4% FBS (final DMSO concentration at 0.5%). After 3 days incubation at 37° C., cells were analyzed for Renilla Luciferase activity using the EnduRen substrate (Promega cat #E6485) according to the manufacturer's directions. Briefly, the EnduRen substrate was diluted in DMEM and then added to the plates to a final concentration of 7.5 μM. The plates were incubated for at least 1 h at 37° C. then read on a Viewlux Imager (PerkinElmer) using a luminescence program. The 50% effective concentration (EC50) was calculated using the four-parameter logistic formula noted above.

HCV = conditions: cited from earlier work
[2] = Hepatitis C virus, Huh-7, 72 h, read-out: EC50 1b (class)
[3] = Hepatitis C virus, Huh-7, 72 h, read-out: EC50 (uM) 1b

CNC(=O)c1c(-c2ccc(F)cc2)oc2nc(OCC(F)(F)F)c(-c3cccc(C(=O)NC(C)(C)C#N)c3)cc12 [Compound K9001, 5-(3-((2-cyanopropan-2-yl)carbamoyl)phenyl)-2-(4-fluorophenyl)-N-methyl-6-(2,2,2-trifluoroethoxy)furo[2,3-b]pyridine-3-carboxamide]
EC50 (HCV replicon 1a; read-out: EC50 for 1a instead): 0.0177 µM
EC50 (HCV replicon 1a; read-out: EC50 for 1a instead (class)): < 0.1 µM

CNC(=O)c1c(-c2ccc(F)cc2)oc2nc(NCC(F)(F)F)c(-c3cccc(C(=O)NC(C)(C#N)C(C)C)c3)cc12 (centres unmarked) [Compound K4004]
EC50 [1, 2]: < 0.1 µM
EC50 [1, 3]: 0.004 µM

CNC(=O)c1c(-c2ccc(F)cc2)oc2nc(NCC(F)(F)F)c(-c3ccc(F)c(C(=O)NC(C)C#N)c3)cc12 (centres unmarked) [Compound 22001]
EC50 [1, 2]: < 0.1 µM
EC50 [1, 3]: 0.0055 µM

CNC(=O)c1c(-c2ccc(F)cc2)oc2nc(NCC(F)(F)F)c(-c3ccc(F)c(C(=O)NC(C)(C#N)C(C)C)c3)cc12 (centres unmarked) [Compound K2005]
EC50 [1, 2]: < 0.1 µM

CNC(=O)c1c(-c2ccc(F)cc2)oc2nc(CCC(F)(F)F)c(-c3cc(F)c(F)c(C(=O)NC(C)(C#N)C4CC4)c3)cc12 (centres unmarked) [Compound 17001]
EC50 [1, 2]: < 0.1 µM
EC50 [1, 3]: 0.0018 µM

alpha-interferon and ribavirin
sustained efficacy, share of patients (HCV; patients): 40%

CNC(=O)c1c(-c2ccc(F)cc2)oc2nc(NCC(F)(F)F)c(-c3ccc(F)c(C(=O)NC(C)(C#N)C4CC4)c3)cc12 (centres unmarked) [Compound 22006]
EC50 ([1]; read-out: EC50 1b (class)): < 0.1 µM

CNC(=O)c1c(-c2ccc(F)cc2)oc2nc(NCC(F)(F)C(F)(F)F)c(-c3cccc(C(=O)NC(C)(C#N)C(C)C)c3)cc12 (centres unmarked) [Compound 30002]
EC50 [1, 2]: < 0.1 µM
EC50 [1, 3]: 0.0394 µM

CNC(=O)c1c(-c2ccc(F)cc2)oc2nc(NCC(F)(F)F)c(-c3cnc(OC)c(C(=O)NC(C)(C)C#N)c3)cc12 [Compound K8001]
EC50 [1, 2]: < 0.1 µM

CNC(=O)c1c(-c2ccc(F)cc2)oc2nc(NCC(F)(F)F)c(-c3cccc(C(=O)NC4(C#N)CC4)c3)cc12 [Compound K4003]
EC50 [1, 2]: < 0.1 µM
EC50 [1, 3]: 0.0043 µM

CNC(=O)c1c(-c2ccc(F)cc2)oc2nc(NCC(F)(F)F)c(-c3cc(F)cc(C(=O)NC(C)(C#N)C4CC4)c3)cc12 (centres unmarked) [Compound 23001]
EC50 [1, 2]: < 0.1 µM

CNC(=O)c1c(-c2ccc(F)cc2)oc2nc(CCC(F)(F)F)c(-c3cc(C(=O)NC(C)(C)C#N)ccc3F)cc12 [Compound 15002]
EC50 [1, 2]: < 0.1 µM
EC50 [1, 3]: 0.0042 µM

CNC(=O)c1c(-c2ccc(F)cc2)oc2nc(CCC(F)(F)F)c(-c3cc(Cl)c(Cl)c(C(=O)NC(C)(C)C#N)c3)cc12 [Compound 16001]
EC50 [1, 2]: < 0.1 µM

CNC(=O)c1c(-c2ccc(F)cc2)oc2nc(NCC(F)(F)F)c(-c3ccc(OC)c(C(=O)NC(C)(C)C#N)c3)cc12 [Compound 21001]
EC50 [1, 2]: < 0.1 µM

CNC(=O)c1c(-c2ccc(F)cc2)oc2nc(NCCO)c(-c3cccc(C(=O)NC(C)(C)C#N)c3)cc12 [Compound 40001]
EC50 [1, 2]: < 0.1 µM

CNC(=O)c1c(-c2ccc(F)cc2)oc2nc(NCC(F)(F)F)c(-c3cccc(C(=O)NC(C)C#N)c3)cc12 (centres unmarked) [Compound 20004]
EC50 ([1]; read-out: EC50 1b (class)): < 0.1 µM

CNC(=O)c1c(-c2ccc(F)cc2)oc2nc(NCC(F)(F)F)c(-c3cccc(C(=O)NC(C)C#N)c3)cc12 (centres unmarked) [Compound 20002]
EC50 [1, 2]: < 0.1 µM

CNC(=O)c1c(-c2ccc(F)cc2)oc2nc(CCC(F)(F)F)c(-c3cc(F)cc(C(=O)NC(C)(C)C#N)c3)cc12 [Compound 14001]
EC50 [1, 2]: < 0.1 µM
EC50 [1, 3]: 0.0022 µM

CNC(=O)c1c(-c2ccc(F)cc2)oc2nc(NCC(F)(F)F)c(-c3ccc(F)c(C(=O)NC4(C#N)CCCC4)c3)cc12 [Compound K2004]
EC50 [1, 2]: < 0.1 µM

CNC(=O)c1c(-c2ccc(F)cc2)oc2nc(NCC(F)(F)F)c(-c3ccc(OC)c(C(=O)NC4(C#N)CCC4)c3)cc12 [Compound K5001]
EC50 [1, 2]: < 0.1 µM

CNC(=O)c1c(-c2ccc(F)cc2)oc2nc(CCC(F)(F)F)c(-c3ccc(F)c(C(=O)NC(C)(C#N)C4CC4)c3)cc12 (centres unmarked) [Compound 13006]
EC50 [1, 2]: < 0.1 µM
EC50 [1, 3]: 0.0036 µM

CNC(=O)c1c(-c2ccc(F)cc2)oc2nc(CCC(F)(F)F)c(-c3ccc(F)c(C(=O)NC(C)C#N)c3)cc12 (centres unmarked) [Compound 13003]
EC50 [1, 2]: < 0.1 µM

CNC(=O)c1c(-c2ccc(F)cc2)oc2cc(N(CCO)S(C)(=O)=O)c(C3CC3)cc12 [HCV-796]
hepatic toxicity (HCV; extended dosing of the combination regimens): hepatic toxicity observed during extended dosing of the combination regimens
HCV RNA levels in patients (HCV; patients, single agent or combined with interferon and ribavirin): reduce HCV RNA levels in patients

CNC(=O)c1c(-c2ccc(F)cc2)oc2nc(NCC(F)(F)F)c(-c3cccc(C(=O)NC(C)(C#N)C4CC4)c3)cc12 (centres unmarked) [Compound 20008]
EC50 ([1]; read-out: EC50 1b (class)): < 0.1 µM

CNC(=O)c1c(-c2ccc(F)cc2)oc2nc(NCC(F)(F)C(F)(F)F)c(-c3ccc(OC)c(C(=O)NC(C)(C#N)C4CC4)c3)cc12 (centres unmarked) [Compound 31002]
EC50 [1, 2]: < 0.1 µM
EC50 [1, 3]: 0.0061 µM

CNC(=O)c1c(-c2ccc(F)cc2)oc2nc(NCC(F)(F)C(F)(F)F)c(-c3cccc(C(=O)NC(C)(C)C#N)c3)cc12 [Compound 30001]
EC50 [1, 2]: < 0.1 µM

CNC(=O)c1c(-c2ccc(F)cc2)oc2nc(NCC(F)(F)F)c(-c3ccc(F)c(C(=O)NC(C)(C#N)C4CC4)c3)cc12 (centres unmarked) [Compound 22005]
EC50 ([1]; read-out: EC50 1b (class)): < 0.1 µM

CNC(=O)c1c(-c2ccc(F)cc2)oc2nc(CCC(F)(F)F)c(-c3cnc(OC)c(C(=O)NC4(C#N)CC4)c3)cc12 [Compound K7003]
EC50 [1, 2]: < 0.1 µM

CNC(=O)c1c(-c2ccc(F)cc2)oc2nc(NCC(F)(F)F)c(-c3cccc(C(=O)NC(C)(C)C#N)c3)cc12 [Compound 20001]
EC50 [1, 2]: < 0.1 µM

CNC(=O)c1c(-c2ccc(F)cc2)oc2nc(NCC(F)(F)F)c(-c3cccc(C(=O)NC(C)(C#N)C4CC4)c3)cc12 (centres unmarked) [Compound 20007]
EC50 ([1]; read-out: EC50 1b (class)): < 0.1 µM

CNC(=O)c1c(-c2ccc(F)cc2)oc2nc(CCC(F)(F)F)c(-c3cccc(C(=O)NC(C)(C#N)C4CC4)c3)cc12 (centres unmarked) [Compound 11007]
EC50 ([1]; read-out: EC50 1b (class)): < 0.1 µM
EC50 ([1]; read-out: EC50 (uM) 1b): 0.0027 µM

CNC(=O)c1c(-c2ccc(F)cc2)oc2nc(CCC(F)(F)F)c(-c3cc(F)cc(C(=O)NC(C)(C#N)C4CC4)c3)cc12 (centres unmarked) [Compound 14002]
EC50 [1, 2]: < 0.1 µM

CNC(=O)c1c(-c2ccc(F)cc2)oc2nc(NCC(F)(F)F)c(-c3ccc(F)c(C(=O)NC4(C#N)CCC4)c3)cc12 [Compound K2003]
EC50 [1, 2]: < 0.1 µM

CNC(=O)c1c(-c2ccc(F)cc2)oc2nc(Cl)c(-c3ccc(OC)c(C(=O)NC4(C#N)CCCC4)c3)cc12 [Compound 10003]
EC50 [1, 2]: < 0.1 µM

CNC(=O)c1c(-c2ccc(F)cc2)oc2nc(CCC(F)(F)F)c(-c3ccc(OC)c(C(=O)NC4(C#N)CCC4)c3)cc12 [Compound 12002]
EC50 [1, 2]: < 0.1 µM
